From patent US20200354426A1 (MEDIMMUNE LIMITED, priority 2016, published 2020)
Several values for one entry are separate records, joined by “and”; a condition that tells them apart may be missing. Identical values can stand only once. Numbered stars: 1 amine (or outer) side, 2 acyl side, 3 side chain; on linkers, the order of the positions; unused ones are H or OH. Side chains are listed from the residue outwards. Ends that are not written are not given here. Peptide text beside a SMILES is read from it. * marks the point of attachment. γGlu = O=C(O)[C@H](CCC(=O)[*:2])N[*:1]; Palmitoyl = CCCCCCCCCCCCCCCC(=O)*

Key:
Human GIPr = target: T1, Human GIPr (Homo sapiens, UniProt P48546); test: cAMP activity assay in assay medium (assay 1); format: cell-based; conditions: assay medium; Table 4; read-out: hGIPR EC50
T1 construct: expressed in transfected cells
T1 sequence (P48546 22-466): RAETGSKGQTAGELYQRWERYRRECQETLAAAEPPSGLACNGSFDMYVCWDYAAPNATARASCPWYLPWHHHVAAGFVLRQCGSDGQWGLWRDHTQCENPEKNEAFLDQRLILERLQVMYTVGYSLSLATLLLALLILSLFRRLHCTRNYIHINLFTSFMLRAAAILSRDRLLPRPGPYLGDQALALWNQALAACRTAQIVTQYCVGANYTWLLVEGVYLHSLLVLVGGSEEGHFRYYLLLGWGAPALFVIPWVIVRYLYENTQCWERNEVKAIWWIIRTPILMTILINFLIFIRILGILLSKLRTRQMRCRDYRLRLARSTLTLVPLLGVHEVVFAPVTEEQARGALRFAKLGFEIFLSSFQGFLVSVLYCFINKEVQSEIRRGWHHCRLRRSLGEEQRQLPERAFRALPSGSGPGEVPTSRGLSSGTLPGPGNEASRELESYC
From the text: (§1) Biological Activity of Peptides in Cell-Based cAMP Activity Assay (Assay 1):
(§2) All sample dilutions were made in duplicate.

Human GlucR = target: T2, Human GlucR (Homo sapiens, UniProt P47871); test: cAMP activity assay in assay medium (assay 1); format: cell-based; conditions: assay medium; Table 4; read-out: hGlucR EC50
T2 construct: expressed in transfected cells
From the text: as §1, §2

Human GLP1R = Human GLP1R (Homo sapiens, UniProt P43220); test: cAMP activity assay in assay medium (assay 1); format: cell-based; parameters: expressed in transfected cells; conditions: assay medium; Table 4; read-out: hGLP1R EC50
From the text: as §1, §2

[1] = rat plasma (frozen blank plasma, thawed); conditions: 37° C., up to 48 hours
[2] = mouse plasma (frozen blank plasma, thawed); conditions: 37° C., up to 48 hours
[3] = human plasma (frozen blank plasma, thawed); conditions: 37° C., up to 48 hours

T2 sequence (P47871 26-477): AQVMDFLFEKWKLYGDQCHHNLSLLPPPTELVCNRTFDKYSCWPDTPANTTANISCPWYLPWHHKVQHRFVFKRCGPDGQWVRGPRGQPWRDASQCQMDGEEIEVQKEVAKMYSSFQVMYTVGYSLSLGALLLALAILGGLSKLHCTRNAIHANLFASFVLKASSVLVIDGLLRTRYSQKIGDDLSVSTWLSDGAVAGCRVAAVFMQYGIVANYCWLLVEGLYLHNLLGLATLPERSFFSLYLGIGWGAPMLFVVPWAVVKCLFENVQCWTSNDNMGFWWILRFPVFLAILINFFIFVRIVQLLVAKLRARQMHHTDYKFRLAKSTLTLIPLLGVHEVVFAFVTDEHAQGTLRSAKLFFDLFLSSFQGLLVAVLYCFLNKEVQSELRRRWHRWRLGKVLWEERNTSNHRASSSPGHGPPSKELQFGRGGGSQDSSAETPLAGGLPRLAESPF
Sequence of Human GLP1R (P43220 24-463): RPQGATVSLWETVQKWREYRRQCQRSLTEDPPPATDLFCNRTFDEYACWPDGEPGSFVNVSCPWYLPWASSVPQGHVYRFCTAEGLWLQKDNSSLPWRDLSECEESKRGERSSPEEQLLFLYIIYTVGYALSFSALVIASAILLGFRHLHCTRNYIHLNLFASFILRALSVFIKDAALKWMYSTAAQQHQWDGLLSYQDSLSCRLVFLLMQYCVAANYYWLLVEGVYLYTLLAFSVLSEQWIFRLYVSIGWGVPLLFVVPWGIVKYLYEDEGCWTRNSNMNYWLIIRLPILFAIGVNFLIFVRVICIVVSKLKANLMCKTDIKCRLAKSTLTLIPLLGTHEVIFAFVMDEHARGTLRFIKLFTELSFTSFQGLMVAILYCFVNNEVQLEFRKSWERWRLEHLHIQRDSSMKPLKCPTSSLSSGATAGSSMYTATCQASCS

`CCCCCCCCCCCCCCCC(=O)N[C@@H](CCC(=O)NCCCC[C@H](NC(=O)[C@H](Cc1ccc(O)cc1)NC(=O)[C@H](CCC(=O)O)NC(=O)[C@H](CO)NC(=O)[C@H](Cc1ccc(O)cc1)NC(=O)[C@H](CC(=O)O)NC(=O)[C@H](CO)NC(=O)[C@@H](NC(=O)[C@H](Cc1ccccc1)NC(=O)[C@@H](NC(=O)CNC(=O)[C@H](CCC(N)=O)NC(=O)[C@H](CO)NC(=O)[C@@H](N)Cc1c[nH]cn1)[C@@H](C)O)[C@@H](C)O)C(=O)N[C@@H](CC(=O)O)C(=O)N[C@@H](CO)C(=O)N[C@@H](CCCNC(=N)N)C(=O)N[C@@H](CCCNC(=N)N)C(=O)N[C@@H](C)C(=O)N[C@@H](CCCNC(=N)N)C(=O)N[C@@H](CC(=O)O)C(=O)N[C@@H](Cc1ccccc1)C(=O)N[C@H](C(=O)N[C@@H](CCC(=O)O)C(=O)N[C@@H](Cc1c[nH]c2ccccc12)C(=O)N[C@@H](CC(C)C)C(=O)N[C@@H](CCC(=O)O)C(=O)N[C@@H](C)C(=O)NCC(=O)NCC(N)=O)C(C)C)C(=O)O` [g876] (H-HSQGTFTSDYSEYK([γGlu-Palmitoyl])DSRRARDFVEWLEAGG-NH2; N-terminus assumed) gave an EC50 (Human GIPr) of 79 nM, an EC50 (Human GlucR) of 0.0104 nM and an EC50 (Human GLP1R) of 0.0863 nM.

In the case of “HSQGTFTSDXSEYLDSERARDFVAWLEAGG-amide ×10 = K(gE-palm)”, the fragment found [1] is reported as “DPP cleaved product, minor” and the fragment found [2] is reported as “DPP cleaved product, minor”.

For “HSQGTFTSDXSRYLDSRSARDFVAWLEAGG-amide ×10 = K(gE-palm)”, the fragment found [1] was “DPP cleaved product”, the not cleaved [3] was 100% stable peptide at 24 h and the fragment found [2] was “DPP cleaved product”.

With “HSQGTFTSDYSKXLDSERARDFVAWLVAGG-amide ×13 = K(gE-palm)” the fragment found [1] was “DPP cleaved product”, the not cleaved [3] was 100% stable peptide at 24 h and the fragment found [2] was “DPP cleaved product and +1 DPP cleaved product”.

Compound “HSQGTFTSDYSKYLDSERARDFVAWLEAGG-NH2 [g840]” has an EC50 (Human GIPr) of 102 nM, an EC50 (Human GlucR) of 0.0053 nM and an EC50 (Human GLP1R) of 0.145 nM.

Compound “HSQGTFTSDYSKYLDSRRAQDFVQWLVRGGKNNRNNIAK-NH2 [g321]” has an EC50 (Human GIPr) of 6.41 nM, an EC50 (Human GlucR) of 0.0279 nM and an EC50 (Human GLP1R) of 0.0272 nM.
